# Assay results published in US8080529B2, “Macrolides with anti-inflammatory activity” (Glaxo Group Limited, priority 2005, dated 2011).
# Where two headings read alike, the source gives them in different places.
# Assays:
# TNF-α [1] = assay: Inhibition of TNF-α production by stimulated human peripheral blood leukocytes in vitro; format: cell-based; conditions: Homo sapiens, Leukocyte, read-out: Percentage of inhibition of TNF-α production
# Summary of the method: (§1)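 Values are percentage inhibition of cytokine release versus stimulated leukocytes lacking compound. Human blood leukocytes received 50 μM or 10 μM compound for 2 h before overnight LPS, PMA or zymosan stimulation, and supernatants were assayed by ELISA.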
# IL-1α = assay: Inhibition of IL-1 production by stimulated human peripheral blood leukocytes in vitro; format: cell-based; conditions: Homo sapiens, Leukocyte, read-out: Percentage of inhibition of IL-1α production
# IL-6 = assay: Inhibition of IL-6 production by stimulated human peripheral blood leukocytes in vitro; format: cell-based; conditions: Homo sapiens, Leukocyte, read-out: Percentage of inhibition of IL-6 production
# Summary of the method: as §1
# IL-8 = assay: Inhibition of IL-8 production by stimulated human peripheral blood leukocytes in vitro; format: cell-based; conditions: Homo sapiens, Leukocyte, read-out: Percentage of inhibition of IL-8 production
# Summary of the method: as §1
# [2] = system: human peripheral blood mononuclear cells (PBMC); assay: Effects on human T-cell proliferation in vitro (3H-thymidine incorporation); format: cell-based; conditions: Homo sapiens, PBMC, read-out: Percentage of inhibition of proliferation of stimulated PBMC
# Description: The influence of the various test compounds at two different concentrations (50 μM and 10 μM) on cell proliferation of human peripheral blood mononuclear cells (PBMC) was assessed. […] The cells were pulsed with 1 μCi of ^3H-thymidine (Amersham, USA) per well during the last 18 h of the culture, and were harvested on the 96-well filter (Packard Bioscience, USA) using a multiple cell harvester (Packard, USA). The incorporation of ^3H-thymidine in activated cells were measured using TopCount NXT (Packard, USA). […] The positive control refers to LPS-, PMA- or zymosan-stimulated samples that were not treated with test compounds.
# Hep G2 = assay: Cytotoxicity assay (MTT), Hep G2 cell line; format: cell-based; conditions: 24 h
# Description: (§2) To determine whether the anti-inflammatory activity of the test compounds was due to observed inhibition of cytokine production and inhibition of proliferation in vitro, and was not a consequence of cellular cytotoxicity, measurement of succinate dehydrogenase activity in living cells was performed. Cells were cultured for 24 h in RPM medium as described above at 37° C. the presence of the test compounds at concentrations of 50 μM and 12.5 μM. MTT [3-(4,5-dimethylthiazole-2-yl)-2,5-diphenyl tetrazolium bromide] (Promega, USA), a detection reagent, was then added and the cultures were incubated for 0.5-2 h. The amount of MTT-Formazan produced was determined using a spectrophotometer at 490 nm (Mosmann, J. Immunol. Methods, 1983, 65: 55-63).
# (§3) The percentage of inhibition of cell growth was calculated using the following formula: % inhibition of cell growth=[…].
# A549 = assay: Cytotoxicity assay (MTT), A549 cell line; format: cell-based; conditions: 24 h
# Description: as §2, §3
# TNF-α [3] = assay: Lipopolysaccharide induced TNF-α production in Balb/cJ mice; format: in vivo; conditions: Mus musculus, ip, 1.5 h, read-out: % inhibition of TNF-α production (plasma)
# Description: Male Balb/cJ mice (Iffa Credo, France) weighing 25-33 g were randomly grouped (n=7 in test group, 7 in positive control group, 4 in negative control group). Test compounds, as well as vehicle [0.125% carboxymethyl-cellulose (Sigma, USA)], were administered to the mice intraperitoneally. Test compounds were administered at a dose of 10 mg/kg of body weight, in a volume of 10 mL/kg of body weight. Thirty minutes later, a sterile solution of lipopolysaccharide (LPS) (Sigma, USA) in saline was intraperitoneally administered at a concentration and volume of 25 μg/0.2 mL/mouse to each animal, except those in negative control. Ninety minutes following administration, all animals were sacrificed by puncturing a. carotis communis. The plasma concentration of TNF-α was determined by sandwich ELISA, using capture and detection antibodies (R&D, USA) according to manufacturer's recommendations. Results are presented in the following table as percent of inhibition of TNF-α production in comparison to the positive control (stimulated, but untreated animals).
Structure (SMILES),inhibition at 10 µM (TNF-α [1]; LPS-stimulated PBL) [%],inhibition at 10 µM (TNF-α [1]; PMA-stimulated PBL) [%],inhibition at 10 µM (TNF-α [1]; zymosan-stimulated PBL) [%],inhibition at 50 µM (TNF-α [1]; LPS-stimulated PBL) [%],inhibition at 50 µM (TNF-α [1]; PMA-stimulated PBL) [%],inhibition at 50 µM (TNF-α [1]; zymosan-stimulated PBL) [%],inhibition at 10 µM (IL-1α; LPS-stimulated PBL) [%],inhibition at 10 µM (IL-1α; PMA-stimulated PBL) [%],inhibition at 10 µM (IL-1α; zymosan-stimulated PBL) [%],inhibition at 50 µM (IL-1α; LPS-stimulated PBL) [%],inhibition at 50 µM (IL-1α; PMA-stimulated PBL) [%],inhibition at 50 µM (IL-1α; zymosan-stimulated PBL) [%],inhibition at 10 µM (IL-6; LPS-stimulated PBL) [%],inhibition at 10 µM (IL-6; PMA-stimulated PBL) [%],inhibition at 10 µM (IL-6; zymosan-stimulated PBL) [%],inhibition at 50 µM (IL-6; LPS-stimulated PBL) [%],Percentage of inhibition of cell growth (Hep G2; 12.5 μM) [%],Percentage of inhibition of cell growth (Hep G2; 50 μM) [%],Percentage of inhibition of cell growth (A549; 12.5 μM) [%],Percentage of inhibition of cell growth (A549; 50 μM) [%],also measured
"CC[C@H]1OC(=O)[C@H](C)[C@@H](O[C@H]2C[C@@](C)(OC)[C@@H](OC(=O)CCN(CC)CC)[C@H](C)O2)[C@H](C)[C@@H](O[C@@H]2O[C@H](C)C[C@H](N(C)C)[C@H]2O)[C@](C)(OC)C[C@@H](C)C(=O)[C@H](C)[C@H]2N(C)C(=O)O[C@]12C [Example 10, 11,12-(N-Methyl-carbamate)-11,12-dideoxy-4-O-(3-diethylaminopropionyl)-6-O-methyl-erythromycin A]",49,41,14,86,62,72,44,30,48,41,0,49,14,12,19,71,0,5,12,6,inhibition at 50 µM (IL-6; PMA-stimulated PBL): 18%; inhibition at 50 µM (IL-6; zymosan-stimulated PBL): 39%; inhibition at 10 µM (IL-8; LPS-stimulated PBL): 27%; inhibition at 10 µM (IL-8; PMA-stimulated PBL): 0%; inhibition at 10 µM (IL-8; zymosan-stimulated PBL): 28%; inhibition at 50 µM (IL-8; LPS-stimulated PBL): 52%; inhibition at 50 µM (IL-8; PMA-stimulated PBL): 42%; inhibition at 50 µM (IL-8; zymosan-stimulated PBL): 36%; inhibition at 10 µM ([2]; PHA): 71%; inhibition at 50 µM ([2]; PHA): 98%; inhibition at 10 µM ([2]; PMA + iono.): 3%; inhibition at 50 µM ([2]; PMA + iono.): 100%
"CC[C@H]1OC(=O)[C@H](C)[C@@H](O[C@H]2C[C@@](C)(OC)[C@@H](OC(=O)CCN(CC)CC)[C@H](C)O2)[C@H](C)[C@@H](O[C@@H]2O[C@H](C)C[C@H](N(C)C)[C@H]2O)[C@](C)(O)C[C@@H](C)NC(=O)[C@H](C)[C@@H](O)[C@]1(C)O [Example 2, 4″-O-(3-Diethylamino-propionyl)-8a-aza-8a-homoerythromycin A]",,,,,,,,,,,,,,,,,0,1,0,3,"inhibition at 10 µM ([2]; PHA): 35%; inhibition at 50 µM ([2]; PHA): 41%; inhibition at 10 µM ([2]; PMA + iono.): 1%; inhibition at 50 µM ([2]; PMA + iono.): 31%; inhibition in vivo at 10 mg/kg (TNF-α [3]; 10 mg/kg intraperitoneally, 30 min before LPS, 90 min after LPS): 59%"
"CC[C@H]1OC(=O)[C@H](C)[C@@H](O[C@H]2C[C@@](C)(OC)[C@@H](OCCCN(CC)CC)[C@H](C)O2)[C@H](C)[C@@H](O[C@@H]2O[C@H](C)C[C@H](N(C)C)[C@H]2O)[C@](C)(OC)C[C@@H](C)C(=O)N[C@H](C)[C@@H](O)[C@]1(C)O [Example 73, 4″-O-(3-Diethylaminopropyl)-6-O-methyl-9a-aza-9a-homoerythromycin A]",,,,,,,,,,,,,,,,,0,0,0,0,inhibition in vivo at 10 mg/kg (TNF-α [3]): 90%
CC[C@H]1OC(=O)[C@H](C)[C@@H](O[C@H]2C[C@@](C)(OC)[C@@H](OC(=O)CCN(C)C3CCCCC3)[C@H](C)O2)[C@H](C)[C@@H](O[C@@H]2O[C@H](C)C[C@H](N(C)C)[C@H]2O)[C@](C)(OC)C[C@@H](C)C(=O)N[C@H](C)[C@@H](O)[C@]1(C)O [Example 25],0,41,19,71,91,88,22,58,82,61,86,93,4,51,51,62,10,8,8,4,inhibition at 50 µM (IL-6; PMA-stimulated PBL): 87%; inhibition at 50 µM (IL-6; zymosan-stimulated PBL): 86%; inhibition at 10 µM (IL-8; LPS-stimulated PBL): 0%; inhibition at 10 µM (IL-8; PMA-stimulated PBL): 0%; inhibition at 10 µM (IL-8; zymosan-stimulated PBL): 17%; inhibition at 50 µM (IL-8; LPS-stimulated PBL): 45%; inhibition at 50 µM (IL-8; PMA-stimulated PBL): 34%; inhibition at 50 µM (IL-8; zymosan-stimulated PBL): 63%
"CC[C@H]1OC(=O)[C@H](C)[C@@H](OC2C[C@@](C)(OC)[C@@H](OC(=O)CCN3CCNCC3)[C@H](C)O2)[C@H](C)[C@@H](OC2O[C@H](C)C[C@H](N(C)C)[C@H]2O)[C@](C)(OC)C[C@@H](C)C(=O)[C@H](C)[C@@H](O)[C@]1(C)O (stereo partly drawn) [Example 50, 4″-O-(3-piperazin-1-yl-propionyl)-6-O-methylerithromycin A]",10,0,36,100,100,98,19,0,81,23,44,69,0,0,52,54,0,8,10,10,inhibition at 50 µM (IL-6; PMA-stimulated PBL): 23%; inhibition at 50 µM (IL-6; zymosan-stimulated PBL): 96%; inhibition at 10 µM (IL-8; LPS-stimulated PBL): 0%; inhibition at 10 µM (IL-8; PMA-stimulated PBL): 0%; inhibition at 10 µM (IL-8; zymosan-stimulated PBL): 0%; inhibition at 50 µM (IL-8; LPS-stimulated PBL): 61%; inhibition at 50 µM (IL-8; PMA-stimulated PBL): 100%; inhibition at 50 µM (IL-8; zymosan-stimulated PBL): 70%
